According to publication PMC4072591, “FGFR2 Is Amplified in the NCI-H716 Colorectal Cancer Cell Line and Is Required for Growth and Survival” (PLoS ONE, 2014):

Biological target: T1, FGFR2 (Homo sapiens, UniProt P21802)
T1 construct: endogenous amplified FGFR2 in NCI-H716 cells
Assay: FGFR2 Y653/[…] phosphorylation in NCI-H716 cells, western blot quantitation
Format: cell-based

T1 sequence (P21802 22-821): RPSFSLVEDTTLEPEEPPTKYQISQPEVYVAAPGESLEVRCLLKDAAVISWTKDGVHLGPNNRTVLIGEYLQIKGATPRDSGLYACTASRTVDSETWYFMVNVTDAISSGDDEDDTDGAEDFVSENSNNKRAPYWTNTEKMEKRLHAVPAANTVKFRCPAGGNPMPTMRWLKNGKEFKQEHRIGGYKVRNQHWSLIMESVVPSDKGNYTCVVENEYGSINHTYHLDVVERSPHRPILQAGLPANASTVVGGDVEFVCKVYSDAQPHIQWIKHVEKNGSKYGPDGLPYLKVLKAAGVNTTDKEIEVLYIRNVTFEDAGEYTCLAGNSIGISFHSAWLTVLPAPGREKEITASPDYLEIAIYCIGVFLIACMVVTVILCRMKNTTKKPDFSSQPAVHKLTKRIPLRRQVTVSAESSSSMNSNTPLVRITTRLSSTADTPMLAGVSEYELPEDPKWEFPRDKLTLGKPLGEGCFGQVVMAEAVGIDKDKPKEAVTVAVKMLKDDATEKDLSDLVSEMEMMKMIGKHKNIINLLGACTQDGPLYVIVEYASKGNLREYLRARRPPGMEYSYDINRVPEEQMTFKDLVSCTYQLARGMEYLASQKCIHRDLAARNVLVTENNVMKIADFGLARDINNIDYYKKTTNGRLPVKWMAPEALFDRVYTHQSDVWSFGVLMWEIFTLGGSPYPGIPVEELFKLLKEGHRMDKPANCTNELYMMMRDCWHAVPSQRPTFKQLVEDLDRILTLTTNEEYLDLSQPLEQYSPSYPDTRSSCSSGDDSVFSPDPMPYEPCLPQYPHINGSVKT

## CN(C[C@@H]1COCCO1)S(=O)(=O)Nc1ccc2ccc3ncc(-c4cnn(C)c4)cc3c(=O)c2c1 [MK2461]
  IC50: 0.165 µM
